Values after ≈ are worked out from the molar mass of the structure shown. Where two headings read alike, the source gives them in different places. A value given as a limit tells only on which side of the number the result lay.

For orientation: MIC means the smallest concentration in the dilution series that meets the test's criterion for growth inhibition. Lower therefore signals a more susceptible organism. Usually IC50 stands for the concentration that inhibits the measured activity by half. The term EC50 denotes the concentration that produces a half-maximal response.

Assay [1] has as its system Streptococcus pneumoniae MFBF 10373. The assay is described as follows: Antimicrobial susceptibility assay in vitro (MIC determination). The class given is cell-based. To be noted: MFBF10373, serial microdilution, 18 h, 35 °C. The procedure:
(§1) Stock solutions of the tested compounds were prepared in DMSO (10 mg/mL). […] The absorbance was recorded at 540 nm. As a positive quality control (susceptibility of strains) tetracycline hydrochloride (TC) (Sigma-Aldrich) was added into wells.
In general terms: Broth dilution looks for growth in wells or tubes with falling amounts of substance.

Assay [2] has as its system Bacillus subtilis ATCC 6633. Described as above. The class given is cell-based. To be noted: ATCC6633, serial microdilution, 18 h, 35 °C. As for the experimental part: as §1
Assay [3] deals with Bacillus cereus ATCC 11778. The assay is described as above. It is filed as cell-based. To be noted: ATCC11778, serial microdilution, 18 h, 35 °C. The procedure: as §1
Assay [4] relates to Acinetobacter baumannii MFBF 10913. Described as above. The class given is cell-based. To be noted: MFBF10913, serial microdilution, 18 h, 35 °C. As for the experimental part:
as §1

In assay [5] the test system is K-562 (chronic myeloid leukemia). Briefly: Antiproliferative screening (cytostatic activity). To be noted: Homo sapiens, K562; 72 h, IncuCyte imaging; read-out: IC50 K-562. It is filed as cell-based. As for the experimental part:
(§2) All human tumor cell lines were acquired from the American Type Culture Collection (ATCC, Manassas, VA, USA), except for the DND-41 cell line which was purchased from the Deutsche Sammlung von Mikroorganismen und Zellkulturen (DSMZ Leibniz-Institut, Braunschweig, Germany) and the Hap1 cell line which was purchased from Horizon Discovery (Waterbeach, UK). […] All media were supplemented with 10% FBS (HyClone, GE Healthcare Life Sciences, USA). […] After overnight incubation, cells were treated with test compounds at four different concentrations ranging from 100 to 0.8 µM. […] Images were taken every 3 h, with one field image per well under 10× magnification. All compounds were tested with duplicate data points and averaged.

The subject of assay [6] is NCI-H460 (lung carcinoma). Briefly: Antiproliferative screening (cytostatic activity). The class given is cell-based. To be noted: Homo sapiens, NCI-H460; 72 h, IncuCyte imaging; read-out: IC50 NCI-H460. As for the experimental part:
as §2

The subject of assay [7] is HCT-116 (colorectal carcinoma). The assay is described as follows: Antiproliferative screening (cytostatic activity). It is filed as cell-based. To be noted: Homo sapiens, HCT-116; 72 h, IncuCyte imaging; read-out: IC50 HCT-116. The procedure:
as §2

Assay [8] has as its system Z-138 (non-Hodgkin lymphoma). Briefly: Antiproliferative screening (cytostatic activity). The class given is cell-based. To be noted: Homo sapiens, Z-138; 72 h, IncuCyte imaging; read-out: IC50 Z-138. As for the experimental part:
as §2

In assay [9] the test system is Capan-1 (pancreatic adenocarcinoma). Briefly: Antiproliferative screening (cytostatic activity). The class given is cell-based. To be noted: Homo sapiens, CAPAN-1; 72 h, IncuCyte imaging; read-out: IC50 Capan-1. The procedure:
as §2

Another assay has as its system MM.1S (multiple myeloma). Briefly: Antiproliferative screening (cytostatic activity). The class given is cell-based. To be noted: Homo sapiens, MM1.S; 72 h, IncuCyte imaging; read-out: IC50 MM.1S. As for the experimental part:
as §2

A further assay relates to Sindbis Virus. Briefly: microbe, parasite or virus in culture. To be noted: Vero. The class given is cell-based.
For another assay, the system named is Yellow Fever Virus. Briefly: microbe, parasite or virus in culture. It is filed as cell-based. To be noted: Vero.
In assay [10] the test system is Enterococcus faecalis ATCC 29212. Briefly: Minimum biofilm eradication assay. It is filed as cell-based. The procedure: (§3) MBECs of fumardiamides 4a–f and succindiamides 5a–f were determined as follows. Each well (96-well plate) was filled with 100 µl of bacterial (10^7 CFU/mL) or yeast (5 × 10^6 CFU/mL) suspension. When the inhibition of yeast biofilm formation was tested, the wells were pre-treated with fetal bovine serum (FBS) (250 µl per well). Negative controls contained broth only. Positive controls were performed using standard antimicrobial drugs gentamycin (Gen) and Amph, respectively. […] Following incubation period, each well was aspirated, washed three times and vigorously shaken to remove all non-adherent bacteria/yeast. The remaining attached cells were fixed with methanol (15 min) and the plates were left to dry overnight. Formed biofilm was stained with crystal violet (1%, 5 min). Excess stain was rinsed by placing the plate under running tap water and the plates were left to dry. Adherent cells were solubilized using ethanol. The absorbance was read at 570 nm. The MBEC value represents the lowest dilution of a compound at which bacteria fail to grow.

Assay [11] relates to Bacillus subtilis ATCC 6633. Briefly: Minimum biofilm eradication assay. It is filed as cell-based. The procedure:
as §3

In assay [12] the test system is Acinetobacter baumannii MFBF 10913. Briefly: Minimum biofilm eradication assay. The class given is cell-based. As for the experimental part:
as §3

Assay [13] deals with HL-60 (acute myeloid leukemia). Briefly: Antiproliferative screening (cytostatic activity). It is filed as cell-based. To be noted: Homo sapiens, HL-60; 72 h, IncuCyte imaging; read-out: IC50 HL-60. The procedure:
(§4) Cytostatic activity was evaluated in vitro on nine different types of human tumor cell lines: Capan-1, Hap1, HCT-116, and NCI-H460, as well as hematological tumors such as DND-41, HL-60, K-562, MM.1S and Z-138 as described previously. All human tumor cell lines were acquired from the American Type Culture Collection (ATCC, Manassas, VA, USA), except for the DND-41 cell line which was purchased from the Deutsche Sammlung von Mikroorganismen und Zellkulturen (DSMZ Leibniz-Institut, Braunschweig, Germany) and the Hap1 cell line which was purchased from Horizon Discovery (Waterbeach, UK). Capan-1, Hap1, HL-60, K-562, Z-138, MM.1S and DND-41 were cultured in Iscove′s Modified Dulbecco′s Medium (IMDM, Gibco Life Technologies, Gaithersburg, MD, USA), HCT-116 were grown in McCoy′s 5A Medium (Gibco Life Technologies) and NCI-H460 were cultured in RPMI (Gibco Life Technologies). All media were supplemented with 10% FBS (HyClone, GE Healthcare Life Sciences, USA). Adherent cell lines HCT-116, Hap1, NCI-H460, and Capan-1 cells were seeded at a density between 400 and 1250 cells per well, in 384-well, black-walled, clear-bottomed tissue culture plates (Greiner Bio-One, Kremsmünster, Germany). After overnight incubation, cells were treated with test compounds at four different concentrations ranging from 100 to 0.8 µM. Suspension cell lines HL-60, K-562, Z-138, MM.1S, and DND-41 were seeded at densities ranging from 3000 to 10,000 cells per well in 384-well, black-walled, clear-bottomed tissue culture plates containing test compounds at the same four concentrations. The plates were incubated and monitored at 37 °C for 72 h in an IncuCyte (Essen BioScience Inc., Ann Arbor, MI, USA) for real-time imaging. Images were taken every 3 h, with one field image per well under 10× magnification. All compounds were tested with duplicate data points and averaged. […]

For assay [14], the system named is Hap1 (chronic myeloid leukemia). Briefly: Antiproliferative screening (cytostatic activity). The class given is cell-based. To be noted: Homo sapiens, HAP1; 72 h, IncuCyte imaging; read-out: IC50 Hap1. As for the experimental part:
as §4

The subject of assay [15] is Streptococcus pneumonia MFBF 10373. Briefly: Minimum biofilm eradication assay. The class given is cell-based, Streptococcus pneumoniae. The procedure:
as §3

[16] abbreviates: read-out: EC50 Sindbis Virus, MTS.
The mark [17] stands for this setting: read-out: EC50 Yellow Fever Virus, MTS.
Setting [18] is: read-out: EC50 Sindbis Virus, Visual CPE Score.
Where [19] appears, read: read-out: EC50 Yellow Fever Virus, Visual CPE Score.

As to `COc1cc(NC(C)CCCNC(=O)/C=C/C(=O)Nc2cccc(F)c2)c2ncccc2c1` (stereo not shown) [Compound 4a, (2E)-N-(3-Fluorophenyl)-N′-{4-[(6-methoxyquinolin-8-yl)amino]pentyl}but-2-enediamide], the MIC is greater than 100 µg/mL in assay [1], 50 µg/mL (≈ 111 µM) in [2], greater than 100 µg/mL in assay [3] and greater than 100 µg/mL in [4]. For the same compound, the IC50 in [5] stood at 31.2 µM; in [6], 15.5 µM; in assay [7] it was 22.3 µM; in assay [8] it was 8.4 µM; in [9] it was 16.9 µM; with MM.1S (multiple myeloma), 13 µM. Besides, the IC50 came out at 5.7 µM in assay [13] and 19.3 µM in assay [14]. For the same compound, the EC50 with Sindbis Virus (setting [16]) and in the assay on Yellow Fever Virus (setting [17]) was greater than 50 µM throughout. In addition, the MBEC in [10] was 25 µg/mL; in [11], 50 µg/mL; in [12], 6.3 µg/mL; in [15], 12.5 µg/mL.

On to `COc1cc(NC(C)CCCNC(=O)/C=C/C(=O)Nc2ccc(F)cc2)c2ncccc2c1` (stereo not shown) [Compound 4b, (2E)-N-(4-Fluorophenyl)-N′-{4-[(6-methoxyquinolin-8-yl)amino]pentyl}but-2-enediamide], for which the MIC in assay [1] was 12.5 µg/mL (≈ 27.7 µM); in assay [2], 25 µg/mL (≈ 55.5 µM); in assay [3], 25 µg/mL (≈ 55.5 µM); in [4], 25 µg/mL (≈ 55.5 µM). Moreover, the IC50 is 70.5 µM in assay [5]; 29.1 µM in assay [6]; greater than 100 µM in assay [7]; greater than 100 µM in [8]; 50.5 µM in [9]; greater than 100 µM in the assay with MM.1S (multiple myeloma). The figures for the IC50 in assay [13] and in assay [14] were greater than 100 µM and 66.4 µM, respectively. Besides, the concentration giving a half-maximal response (EC50) with Sindbis Virus (setting [16]) and with Yellow Fever Virus (setting [17]) was greater than 50 µM each time. Moreover, the MBEC in [10], in assay [11], in assay [12] and in [15] was 25 µg/mL in each case.

Regarding `COc1cc(NC(C)CCCNC(=O)/C=C/C(=O)Nc2cccc(Cl)c2)c2ncccc2c1` (stereo not shown) [Compound 4c, (2E)-N-(3-Chlorophenyl)-N′-{4-[(6-methoxyquinolin-8-yl)amino]pentyl}but-2-enediamide], the MIC in assay [1] worked out at 25 µg/mL (≈ 53.5 µM); in [2] it was 50 µg/mL (≈ 107 µM); in [3] it was 25 µg/mL (≈ 53.5 µM); in assay [4] it was 25 µg/mL (≈ 53.5 µM). The IC50 in assay [5] is greater than 100 µM; in [6], 43.7 µM; in [7], 73 µM; in assay [8], 46.5 µM; in assay [9], 69.9 µM; in the assay with MM.1S (multiple myeloma) it was greater than 100 µM. In addition, the IC50 in assay [13] and in assay [14] was greater than 100 µM throughout. The EC50 with Sindbis Virus (setting [16]) was 3 µM; in the assay on Sindbis Virus (setting [18]), greater than 50 µM; in the assay on Yellow Fever Virus (setting [17]) it was greater than 50 µM; in the assay with Yellow Fever Virus (setting [19]), greater than 50 µM. In addition, the MBEC amounted to 25 µg/mL in assay [10], 50 µg/mL in assay [11], 100 µg/mL in assay [12] and 100 µg/mL in [15].

Regarding `COc1cc(NC(C)CCCNC(=O)/C=C/C(=O)Nc2ccc(Cl)cc2)c2ncccc2c1` (stereo not shown) [Compound 4d, (2E)-N-(4-Chlorophenyl)-N′-{4-[(6-methoxyquinolin-8-yl)amino]pentyl}but-2-enediamide], the MIC in assay [1] is 12.5 µg/mL (≈ 26.8 µM); in assay [2], greater than 100 µg/mL; in assay [3], greater than 100 µg/mL; in [4], 12.5 µg/mL (≈ 26.8 µM). In addition, the IC50 was greater than 100 µM in assay [5]; greater than 100 µM in assay [6]; greater than 100 µM in assay [7]; greater than 100 µM in assay [8]; 91.8 µM in assay [9]; greater than 100 µM with MM.1S (multiple myeloma). Further, the half-maximal inhibitory concentration (IC50) in assay [13] and in assay [14] was greater than 100 µM throughout. In addition, the EC50 in the assay on Sindbis Virus (setting [16]) and in the assay on Yellow Fever Virus (setting [17]) was greater than 50 µM throughout. The MBEC in assay [10] was 50 µg/mL; in [11] it was greater than 100 µg/mL; in [12], 100 µg/mL; in [15] it was 50 µg/mL.

On to `COc1cc(NC(C)CCCNC(=O)/C=C/C(=O)Nc2cccc(C(F)(F)F)c2)c2ncccc2c1` (stereo not shown) [Compound 4e, (2E)-N′-{4-[(6-Methoxyquinolin-8-yl)amino]pentyl}-N-[3-(trifluoromethyl)phenyl]but-2-enediamide], for which the minimum inhibitory concentration (MIC) in assay [1] was 50 µg/mL (≈ 99.9 µM); in assay [2] it was greater than 100 µg/mL; in assay [3], greater than 100 µg/mL; in assay [4], 25 µg/mL (≈ 49.9 µM). Besides, the IC50 in assay [5] is 71.2 µM; in assay [6], 34.2 µM; in [7], greater than 100 µM; in assay [8], 68.4 µM; in assay [9] it was 56.5 µM; in the assay on MM.1S (multiple myeloma) it was greater than 100 µM. The 50% inhibitory concentration (IC50) in [13] and in [14] was greater than 100 µM each time. Also, the EC50 with Sindbis Virus (setting [16]) was 5.3 µM; in the assay with Sindbis Virus (setting [18]), 4.2 µM; in the assay on Yellow Fever Virus (setting [17]), greater than 50 µM; in the assay on Yellow Fever Virus (setting [19]) it was greater than 50 µM. The MBEC in assay [10] is given as 50 µg/mL; in [11] it was greater than 100 µg/mL; in assay [12], 100 µg/mL; in assay [15] it was 50 µg/mL.
